{"source": "patent US12377067B2", "about": "“Methods of treating PAH with combinations of ralinepag and other agents” (Arena Pharmaceuticals, Inc., priority 2016, dated 2025)", "tested_on": "human PASMCs from PAH patients", "assay": "Cell proliferation assay (MTS), serum-induced growth", "format": "cell-based", "experimental": "Primary cell lines of distal PASMCs from PAH patients were derived from explanted lungs as previously described (Falcetti et al., 2010; Bubb et al., 2014). These cells have an abnormal proliferative capacity when grown in culture (Zhang et al., 2007; Falcetti et al., 2010). Frozen cells were revived and grown in human smooth muscle basal medium-2 (SMBM; Lonza, Slough, UK) supplemented with 9% fetal bovine serum (FBS) at 37° C. in a humidified atmosphere of 5% CO2. After reaching confluence, cells were washed with phosphate-buffered saline (PBS) and treated with trypsin-EDTA for further passage. Only cells between passages 3 and 10 were used for experiments.\nComparative concentration-dependent effects of IP receptor agonists on cell proliferation were assessed on human PASMCs derived from PAH patients. Cells were seeded onto 96-well plates at a density of 1×10^4 cells/ml and grown at 37° C. in a humidified CO2 incubator in human smooth muscle basal medium-2 (SMBM; Lonza) containing 9% FBS and penicillin-streptomycin (Pen/Strep; 50 units/ml). After 24 hours, cells were growth arrested by incubating for 48 hours in fresh media containing no added serum. Media was then subsequently removed, replaced with human SMBM containing 9% serum with or without 0.1% DMSO in the absence and presence of the IP receptor agonist (either ralinepag, iloprost, treprostinil or MRE-269) and cells treated with the IP receptor agonist for 4 days over the concentration range ([…]). Responses were directly compared in cells containing the IP receptor antagonist, RO-1138452 (1 μM), which was added to cells 30-60 minutes prior to the addition of the IP agonist and remained throughout the experiment. Cells incubated with no added serum over the same time period (4 days) acted as the time control.\nCell proliferation was obtained using an MTS proliferation kit (Promega), a colorimetric method for determining the number of viable cells which is based on the cleavage of the tetrazolium salt MTS to formazan by cellular mitochondrial dehydrogenases. An increase in cell number leads to a proportional increase in the amount of formazan dye formed which is quantified by measuring the absorbance of the dye solution at 490 nm. In each case background absorbance was corrected by subtracting the average absorbance from the “no cell” control wells from all other absorbance values.\nCell proliferation was then normalized to the growth response induced by FBS alone, which was taken as the FBS response minus the time control (=100% growth at 4 days). Growth responses induced in presence of solvent±drugs is shown as % change in cell proliferation relative to the FBS response alone in all figures.\nAll data are presented as mean±standard error of mean (S.E.M) of at least 5 observations. Agonist log-concentration curves were constructed and fitted using the non-linear fitting routine in GraphPad Prism 4 or 6 (San Diego, Calif., USA). The concentration of agonist causing 50% of the maximal response (Emax) was expressed as the negative log (pEC50) and the mean EC50 calculated. P values <0.05 are considered statistically significant."}
{"smiles": "O=C(O)COC[C@H]1CC[C@H](COC(=O)N(c2ccccc2)c2ccc(Cl)cc2)CC1", "note": "[ralinepag, 2-(((1r,4r)-4-(((4-chlorophenyl)(phenyl)carbamoyloxy)methyl)cyclohexyl)methoxy)acetic acid]", "values": [{"measurement": "inhibition at 0.001 µM", "setting": "Homo sapiens, PASMC, 1 nM ralinepag alone", "result": 14, "unit": "%"}, {"measurement": "inhibition at 0.01 µM", "setting": "Homo sapiens, PASMC, 10 nM ralinepag in the presence of 100 nM bosentan", "result": 21, "unit": "%"}, {"measurement": "inhibition at 10 µM", "setting": "Homo sapiens, PASMC, 10 μM ralinepag alone (highest dose tested)", "result": 50, "unit": "%"}, {"measurement": "inhibition at 0.1 µM", "setting": "Homo sapiens, PASMC, 96 h, drug alone at 100 nM, compared to FBS and DMSO, 4 days", "result": 28, "unit": "%"}, {"measurement": "EC50", "setting": "Homo sapiens, PASMC, 96 h, ralinepag alone or + 100 nM drug, from individual fits, 9% FBS + 0.1% DMSO, 4 days", "result": 0.025, "unit": "µM"}, {"measurement": "EC50", "setting": "Homo sapiens, PASMC, ralinepag in the presence of 100 nM riociguat, individual fits", "result": 0.01, "unit": "µM"}, {"measurement": "antiproliferative response in the presence of an IP receptor antagonist", "setting": "IP receptor antagonist RO-1138452 (1 μM)", "result": "completely inhibited"}, {"measurement": "maximal effect compared with treprostinil", "setting": "cell proliferation assay", "result": "weaker maximal effects"}, {"measurement": "fold lower dose of ralinepag inhibiting cell proliferation", "setting": "combined with 100 nM macitentan vs ralinepag alone", "result": 10, "unit": "fold"}, {"measurement": "IP receptor dependence of the effect", "setting": "cyclic AMP and cell proliferation assays in human PASMCs from PAH patients", "result": "selective IP receptor agonists"}, {"measurement": "dose of ralinepag at which significant inhibition of cell growth occurred", "setting": "in the presence of 100 nM riociguat", "result": 10, "unit": "pM"}, {"measurement": "potency enhancement", "setting": "in the presence of 100 nM sildenafil, mean fits (Table 2)", "result": 8, "unit": "fold"}, {"measurement": "antiproliferative effect compared to ralinepag alone", "setting": "in the presence of 100 nM treprostinil, entire concentration range, mean data", "result": "more effective in the presence of treprostinil"}, {"measurement": "fold more antiproliferation effects than MRE-269", "setting": "ralinepag vs MRE-269", "result": 10, "unit": "fold"}]}
